The values that follow come from patent publication US12416008B2, “Compositions and methods of use for small-molecule regulation of CRISPR-Cas9 activity using RNA aptamers” (priority 2019, dated 2025).

In the data set the test system is galK 1 site. Briefly: red/white colony screen of editing efficiency at the galK 1 site (CREATE recombineering). In kind it is cell-based, E. coli MG1655. Conditions: for Editing Efficiency 1 mM Theo: induced for 3 hours with 1 mM theophylline; for Editing Efficiency no Theo: no theophylline, 3 hours recovery; for gene editing activity and ligand dependence (in words): with and without aptamer ligand. On the procedure: Candidates from this enriched library were analyzed to inform an improved library design. After three selection/counterselection steps, cells were plated on M63 selection medium^20 and 150 colonies were picked. Each isolated candidate was then transformed into unedited E. coli to screen for theophylline-responsive constructs using a red/white colony assay to quantify the percentage of edited bacteria. Colonies with an unedited galK site appear red whereas edited colonies appear white (FIG. 5). The percentage of white colonies is considered the editing efficiency. Gene editing was induced as previously described with or without adding theophylline and the editing efficiencies were compared.
The protocol established by Garst et al was mainly followed. LB containing kanamycin and chloramphenicol was inoculated with MGλ9 cells and grown overnight at 30° C. The stationary culture was diluted 100 fold in LB, containing chloramphenicol, kanamycin and 0.2% arabinose and grown to an OD600=0.4-0.6 in 25 mL LB. The culture was heat-shocked in a shaking waterbath at 42° C. for 15 minutes to induce expression of the lambda-red proteins from pSIM5. Then, the culture was washed in two volumes of ice-cold deionized water, resuspended in 500 μl deionized water and 50 μl of the cell suspension was electroporated with 200 ng of a CREATE plasmid that encodes gRNA and homology template. The transformants were recovered in 4 mL of LB, containing 0.2% arabinose and optionally 1 mM theophylline or 1 μM anhydrotetracycline (ATC), and shaken at 37° C. for 3 hours before plating on MacConkey Agar. To estimate the number of cfu, aliquots were plated on LB agar 1 hour after transformation.
In order to assess the frequency of gene editing, a red/white screen was used to visualize the introduction of a stop codon into the galK gene by CREATE. The original CREATE protocol was used for inducing gene editing and after 3 hours of recovery (with or without the agRNA ligand) a series of dilutions of the cultures were plated on MacConkey Agar plates containing 1% galactose. Bacterial colonies with a mutated galK* site appear white on the plates, whereas non-edited colonies appear red. The editing efficiency could be calculated by dividing the number of edited colonies over the total number of colonies. By comparing the editing efficiency in presence versus absence of the ligand, a dynamic range of the in vivo activity could be determined.
When screening the enriched libraries for switchable constructs, the transformants were recovered in 4 mL of LB broth, a dilution series was plated for every construct and the experiment was only carried out once due to the large volume of colonies screened (˜250 in total). When the constructs A9 and GU19 were characterized in detail, triplica of the experiment were carried out.

“GU10: agRNA cassette GTACGGCCCATAAT, SEQ ID NO: 42 (expressed or natural sequence)”: the “Editing Efficiency 1 mM Theo” value was determined as 0% and the “Editing Efficiency no Theo” value is 0%.

With “AU3: agRNA cassette ACAAGGCCCATAAT, SEQ ID NO: 17 (expressed or natural sequence)”, the “Editing Efficiency 1 mM Theo” value came to 72% and the “Editing Efficiency no Theo” value came to 1%.

As to “AU20: agRNA cassette AAATGGCCGGCAAT, SEQ ID NO: 33 (expressed or natural sequence)”, the “Editing Efficiency 1 mM Theo” value is 0% and the “Editing Efficiency no Theo” value worked out at 0%.

Turning to “GC4: agRNA cassette GGTCGGCCAGTAGC, SEQ ID NO: 55 (expressed or natural sequence)”, the “Editing Efficiency 1 mM Theo” value was determined as 1% and the “Editing Efficiency no Theo” value is 0%.

On to “GU16: agRNA cassette GGGAGGCCAGCGAT, SEQ ID NO: 48 (expressed or natural sequence)”, for which the “Editing Efficiency 1 mM Theo” value is listed as 0% and the “Editing Efficiency no Theo” value was found to be 1%.

In the case of “AU14: agRNA cassette AGTGGGCCAGCCTT, SEQ ID NO: 27 (expressed or natural sequence)”, the “Editing Efficiency 1 mM Theo” value came out at 17% and the “Editing Efficiency no Theo” value is 0%.

Consider “AU19: agRNA cassette AATAGGCCCGCAGT, SEQ ID NO: 32 (expressed or natural sequence)”, for which the “Editing Efficiency 1 mM Theo” value is reported as 10% and the “Editing Efficiency no Theo” value is reported as 0%.

With “GC9: agRNA cassette GCAGGGCCTCTAAC, SEQ ID NO: 60 (expressed or natural sequence)”, the “Editing Efficiency 1 mM Theo” value came out at 0% and the “Editing Efficiency no Theo” value stood at 0%.

On to “GU11: agRNA cassette GTATGGCCTCGGAT, SEQ ID NO: 43 (expressed or natural sequence)”, for which the “Editing Efficiency 1 mM Theo” value was found to be 0% and the “Editing Efficiency no Theo” value was 0%.

As for “GC5: agRNA cassette GTTGGGCCGCGGAC, SEQ ID NO: 56 (expressed or natural sequence)”, the “Editing Efficiency 1 mM Theo” value is listed as 0% and the “Editing Efficiency no Theo” value is listed as 0%.

For the molecule “GU18: agRNA cassette GATTGGCCTACGGT, SEQ ID NO: 50 (expressed or natural sequence)”, the “Editing Efficiency 1 mM Theo” value was 1% and the “Editing Efficiency no Theo” value stood at 0%.

Take “GU15: agRNA cassette GGACGGCCTACAAT, SEQ ID NO: 47 (expressed or natural sequence)”: the “Editing Efficiency 1 mM Theo” value is reported as 11% and the “Editing Efficiency no Theo” value amounted to 0%.

Regarding “RG53: agRNA cassette AGTGAGCTAAAAAT, SEQ ID NO: 3 (expressed or natural sequence)”, the “Editing Efficiency 1 mM Theo” value is recorded as 22% and the “Editing Efficiency no Theo” value is 0%.

As for “GU6: agRNA cassette GGACGGCCAAGCAT, SEQ ID NO: 39 (expressed or natural sequence)”, the “Editing Efficiency 1 mM Theo” value worked out at 1% and the “Editing Efficiency no Theo” value is 0%.

In the case of “AU15: agRNA cassette ACCCGGCCATTCAT, SEQ ID NO: 28 (expressed or natural sequence)”, the “Editing Efficiency 1 mM Theo” value amounted to 5% and the “Editing Efficiency no Theo” value turned out to be 0%.

Consider “A10: agRNA cassette GATGGGCCTCCACC, SEQ ID NO: 9 (expressed or natural sequence)”, for which the “Editing Efficiency 1 mM Theo” value was determined as 14% and the “Editing Efficiency no Theo” value is given as 0%.

Take “GU4: agRNA cassette GATTGGCCATACAT, SEQ ID NO: 37 (expressed or natural sequence)”: the “Editing Efficiency 1 mM Theo” value is 0% and the “Editing Efficiency no Theo” value came to 0%.

For “GC2: agRNA cassette GTCAGGCCTATACC, SEQ ID NO: 53 (expressed or natural sequence)”, the “Editing Efficiency 1 mM Theo” value came out at 0% and the “Editing Efficiency no Theo” value is 0%.

For “GU9: agRNA cassette GTTCGGCCCCGACT, SEQ ID NO: 41 (expressed or natural sequence)”, the “Editing Efficiency 1 mM Theo” value is on record as 0% and the “Editing Efficiency no Theo” value came out at 0%.

Turning to “AU1: agRNA cassette AGGGGGCCTATAAT, SEQ ID NO: 15 (expressed or natural sequence)”, the “Editing Efficiency 1 mM Theo” value amounted to 2% and the “Editing Efficiency no Theo” value was 0%.

Take “GC6: agRNA cassette GATTGGCCAGCAAC, SEQ ID NO: 57 (expressed or natural sequence)”: the “Editing Efficiency 1 mM Theo” value turned out to be 40% and the “Editing Efficiency no Theo” value stood at 1%.

On to “AU5: agRNA cassette ACTCGGCCTGAACT, SEQ ID NO: 19 (chemistry not given here)”, for which the “Editing Efficiency 1 mM Theo” value turned out to be 43% and the “Editing Efficiency no Theo” value was found to be 0%.

Take “GU14: agRNA cassette GACTGGCCTATAAT, SEQ ID NO: 46 (expressed or natural sequence)”: the “Editing Efficiency 1 mM Theo” value turned out to be 2% and the “Editing Efficiency no Theo” value worked out at 0%.

For the molecule “GU12: agRNA cassette GCCGGGCCTTTTTT, SEQ ID NO: 44 (expressed or natural sequence)”, the “Editing Efficiency 1 mM Theo” value is on record as 7% and the “Editing Efficiency no Theo” value is reported as 0%.

Turning to “GU17: agRNA cassette GTAAGGCCGCCGAT, SEQ ID NO: 49 (expressed or natural sequence)”, the “Editing Efficiency 1 mM Theo” value was 0% and the “Editing Efficiency no Theo” value is 0%.

Take “3-methylxanthine aptamer: theophylline aptamer domain with C22A point mutation at the ligand-binding site; SEQ ID NO: 96 (AUACCAGCUUCGAAAGAAGCCAUUGGCAG; listed as RNA, chemistry not fully specified)”: the “gene editing activity and ligand dependence (in words)” value is listed as “not activatable by theophylline”.

Regarding “GU3: agRNA cassette GCAGGGCCTCATTT, SEQ ID NO: 36 (expressed or natural sequence)”, the “Editing Efficiency 1 mM Theo” value came out at 0% and the “Editing Efficiency no Theo” value was 0%.

For “AU8: agRNA cassette ACGGGGCCTAATAT, SEQ ID NO: 22 (expressed or natural sequence)”, the “Editing Efficiency 1 mM Theo” value came out at 48% and the “Editing Efficiency no Theo” value came out at 0.3%.

As for “GC3: agRNA cassette GTCCGGCCCCACAC, SEQ ID NO: 54 (expressed or natural sequence)”, the “Editing Efficiency 1 mM Theo” value was determined as 12% and the “Editing Efficiency no Theo” value is recorded as 0%.

As for “GC11: agRNA cassette GCGTGGCCCTTCCC, SEQ ID NO: 62 (chemistry not given here)”, the “Editing Efficiency 1 mM Theo” value came out at 3% and the “Editing Efficiency no Theo” value is given as 0%.

B1: agRNAs created by Liu et al.: agRNAs created by Liu et al., designed to regulate gene expression via CRISPRi; SEQ ID NO: 74 (nucleic acid)
guide: ATGATAAAGCTGCTGCAATAGTTTTAGAGCTAGAAATAGCAAGTTAAAATAAGGCTAGTCCGTTATCAACTTGAAAAAGTGGCACCGAGTCGGTGCCAGCAGCTTTATCATATACCACGCGAAAGCGCCTTGGCAGATGATAAAGTTTTTTT
As for B1, the “gene editing activity and ligand dependence (in words)” value was “lead to gene editing with and without the aptamer-ligand”.
